From US4214091A, “Antibiotic No. 2-200 and process for producing thereof” (Chugai Seiyaku Kabushiki Kaisha, priority 1977, dated 1980)
Values after ≈ are worked out from the molar mass of the structure shown. Read-outs that look alike come from different tables or passages of the source.

Key:
[1] = tested on: bacteria of genus Serratia; assay: antibacterial activity (general statement); format: cell-based
[2] = acute toxicity, single administration; details: mouse, in vivo, pH 7, read-out: median lethal dose (LD50)
Method: The crystal of the antibiotic No. 2-200 obtained in Example 4 was floated in sterile distilled water, mixed with 5% caustic soda to adjust the pH to 7.0, and dissolved to make a solution. The solution was adminstered to 5-week-old ddY male mice to examine its actuate toxicity as well as delayed toxicity. During 10 days that followed the administration, the weight of each mouse, its food intake and water intake were measured.

[3] = tested on: Serratia marrcescens FU-111; assay: MIC by agar plate dilution method; format: cell-based; details: FU111, 24 h, read-out: Minimum inhibitory concentration
Method: (§1) The test organisms were incubated by agar plate dilution method at 37° C. for 24 hours, after which their growth was observed. The test organisms were incubated on an NB medium (product of Eiken Kagaku) at 37° C. overnight, and each culture obtained was diluted 10^3 - to 10^4 -fold and stamped on an agar plate. The following agar plate media were used:
(§2) NA: nutrient agar (product of Eiken Kagaku)
(§3) NA+G6P: glucose-6-phosphoric acid (50 μg/ml) plus nutrient agar
(§4) Anti-3A: antibiotic medium No. 3 agar (product of Difco)
(§5) MHA: Mueller Hinton Agar (product of Eiken Kagaku)

[4] = tested on: Pseudomonas aeruginosa M57740; assay: MIC by agar plate dilution method; format: cell-based
Method: as §1, §2, §3, §4, §5

[5] = tested on: Salmonella enteritidis T-1; assay: MIC by agar plate dilution method; format: cell-based; details: Salmonella enterica, 24 h, 37° C., read-out: Minimum inhibitory concentration
Method: as §1, §2, §3, §4, §5

Shigella flexneri 2b = assay: MIC by agar plate dilution method; format: cell-based; details: 24 h, 37° C., read-out: Minimum inhibitory concentration
Method: as §1, §2, §3, §4, §5

[6] = tested on: Bacillus subtilis PCI-219; assay: MIC by agar plate dilution method; format: cell-based; details: 37° C., 24 hours
Method: as §1, §2, §3, §4, §5

Escherichia coli No. 9 = assay: MIC by agar plate dilution method; format: cell-based; details: NO.9, 24 h, 37° C., read-out: Minimum inhibitory concentration
Method: as §1, §2, §3, §4, §5

Salmonella paratyphi A = assay: MIC by agar plate dilution method; format: cell-based; details: Salmonella enterica, 24 h
Method: as §1, §2, §3, §4, §5

Escherichia coli NIHJ = assay: MIC by agar plate dilution method; format: cell-based; details: 24 h, 37° C., read-out: Minimum inhibitory concentration
Method: as §1, §2, §3, §4, §5

[7] = tested on: Staphylococcus aureus 209P; assay: MIC by agar plate dilution method; format: cell-based; details: 24 h, 37° C., read-out: Minimum inhibitory concentration
Method: as §1, §2, §3, §4, §5

[8] = tested on: Staphylococcus aureus A-5; assay: MIC by agar plate dilution method; format: cell-based; details: A5, 24 h, 37° C., read-out: Minimum inhibitory concentration
Method: as §1, §2, §3, §4, §5

Bacillus cereus = assay: MIC by agar plate dilution method; format: cell-based; details: 37° C., 24 hours
Method: as §1, §2, §3, §4, §5

Shigella sonnei = assay: MIC by agar plate dilution method; format: cell-based; details: 24 h, 37° C., read-out: Minimum inhibitory concentration
Method: as §1, §2, §3, §4, §5

[9] = tested on: Klebsiella pneumoniae 15c; assay: MIC by agar plate dilution method; format: cell-based; details: 24 h, read-out: Minimum inhibitory concentration
Method: as §1, §2, §3, §4, §5

Proteus mirabilis 1287 = assay: MIC by agar plate dilution method; format: cell-based; details: 37° C., 24 hours
Method: as §1, §2, §3, §4, §5

[10] = tested on: Pseudomonas aeruginosa J-272; assay: MIC by agar plate dilution method; format: cell-based; details: 37° C., 24 hours
Method: as §1, §2, §3, §4, §5

[11] = tested on: Staphylococcus aureus JU-5; assay: MIC by agar plate dilution method; format: cell-based; details: JU5, 24 h, 37° C., read-out: Minimum inhibitory concentration
Method: as §1, §2, §3, §4, §5

[12] = tested on: Staphylococcus epidermidis T0-3; assay: MIC by agar plate dilution method; format: cell-based; details: T03, 24 h, 37° C., read-out: Minimum inhibitory concentration
Method: as §1, §2, §3, §4, §5

Salmonella typhi TANAKA = assay: MIC by agar plate dilution method; format: cell-based; details: Salmonella enterica, 24 h
Method: as §1, §2, §3, §4, §5

[13] = tested on: Pseudomonas aeruginosa G-75; assay: MIC by agar plate dilution method; format: cell-based; details: 37° C., 24 hours
Method: as §1, §2, §3, §4, §5

Solubility in solvents = format: physicochemical
[14] = NA + G6P (50 μg/ml), 37° C., 24 hours
[15] = read-out: Minimum inhibitory concentration, Anti-3A, 37° C.
[16] = read-out: Minimum inhibitory concentration, MHA, 37° C.
[17] = read-out: Minimum inhibitory concentration, NA + G6P (50 μg/ml), 37° C.
[18] = read-out: Minimum inhibitory concentration, NA, 37° C.

With `C=CC(C)=CC1(C)SC(=O)C(C)=C1O` (single isomer, unassigned) [No. 2-200] the “antibacterial activity to bacteria of genus Serratia” value [1] was “particularly strong antibacterial activity”, the LD50 at 240 h ([2]; ip) was 810 mg/kg and the LD50 at 240 h ([2]; iv) was 705 mg/kg. The MIC ([3]; Anti-3A, 37° C., 24 hours) was 25 µg/mL (≈ 119 µM), the MIC [3, 14] was 50 µg/mL and the MIC ([3]; NA, 37° C., 24 hours) was 50 µg/mL (≈ 238 µM). It also gave an MIC [3] of 6.25 µg/mL (≈ 29.7 µM), an MIC ([4]; M57740, 24 h, read-out: Minimum inhibitory concentration, Anti-3A, 37° C.) of 1.56 µg/mL (≈ 7.42 µM) and an MIC ([4]; M57740, 24 h, read-out: Minimum inhibitory concentration, NA + G6P (50 μg/ml), 37° C.) of 1.56 µg/mL. It also gave an MIC ([4]; M57740, 24 h, read-out: Minimum inhibitory concentration, NA, 37° C.) of 1.56 µg/mL (≈ 7.42 µM), an MIC ([4]; M57740, MHA, 37° C., 24 hours, read-out: Minimum inhibitory concentration) of no more than 0.78 µg/mL and an MIC ([5]; Anti-3A) of 3.12 µg/mL (≈ 14.8 µM). The MIC ([5]; MHA) was 3.12 µg/mL (≈ 14.8 µM), the MIC ([5]; NA + G6P (50 μg/ml)) was 6.25 µg/mL and the MIC ([5]; NA) was 6.25 µg/mL (≈ 29.7 µM). The MIC (Shigella flexneri 2b; Anti-3A) was 3.12 µg/mL (≈ 14.8 µM), the MIC (Shigella flexneri 2b; MHA) was 1.56 µg/mL (≈ 7.42 µM) and the MIC (Shigella flexneri 2b; NA + G6P (50 μg/ml)) was 6.25 µg/mL. It also gave an MIC (Shigella flexneri 2b; NA) of 6.25 µg/mL (≈ 29.7 µM), a Minimum inhibitory concentration ([6]; Anti-3A) of 50 µg/mL (≈ 238 µM) and an MIC ([6]; Bacillus subtilis, PCI219, NA, read-out: Minimum inhibitory concentration) of 50 µg/mL (≈ 238 µM). The Minimum inhibitory concentration ([6]; MHA) was 50 µg/mL (≈ 238 µM), the Minimum inhibitory concentration ([6]; NA + G6P (50 μg/ml)) was 50 µg/mL and the MIC (Escherichia coli No. 9; Anti-3A) was 100 µg/mL (≈ 476 µM). It also gave an MIC (Escherichia coli No. 9; MHA) of 50 µg/mL (≈ 238 µM), an MIC (Escherichia coli No. 9; NA + G6P (50 μg/ml)) of 50 µg/mL and an MIC (Escherichia coli No. 9; NA) of 50 µg/mL (≈ 238 µM). For the same compound, the MIC (Salmonella paratyphi A; [15]) was 50 µg/mL (≈ 238 µM), the MIC (Salmonella paratyphi A; [16]) was 3.12 µg/mL (≈ 14.8 µM) and the MIC (Salmonella paratyphi A; [17]) was 50 µg/mL. For the same compound, the MIC (Salmonella paratyphi A; [18]) was 50 µg/mL (≈ 238 µM), the MIC (Escherichia coli NIHJ; Anti-3A) was 200 µg/mL (≈ 951 µM) and the MIC (Escherichia coli NIHJ; MHA) was 50 µg/mL (≈ 238 µM). The MIC (Escherichia coli NIHJ; NA + G6P (50 μg/ml)) was 100 µg/mL, the MIC (Escherichia coli NIHJ; NA) was 200 µg/mL (≈ 951 µM) and the MIC ([7]; Anti-3A) was 25 µg/mL (≈ 119 µM). The MIC ([7]; MHA) was 50 µg/mL (≈ 238 µM), the MIC ([7]; NA + G6P (50 μg/ml)) was no less than 50 µg/mL and the MIC ([7]; NA) was greater than 50 µg/mL. It also gave an MIC ([8]; Anti-3A) of 25 µg/mL (≈ 119 µM), an MIC ([8]; MHA) of 50 µg/mL (≈ 238 µM) and an MIC ([8]; NA + G6P (50 μg/ml)) of 25 µg/mL. The MIC ([8]; NA) was 50 µg/mL (≈ 238 µM), the Minimum inhibitory concentration (Bacillus cereus; Anti-3A) was 50 µg/mL (≈ 238 µM) and the MIC (Bacillus cereus; Bacillus cereus, NA, read-out: Minimum inhibitory concentration) was 50 µg/mL (≈ 238 µM). For the same compound, the Minimum inhibitory concentration (Bacillus cereus; MHA) was 50 µg/mL (≈ 238 µM), the Minimum inhibitory concentration (Bacillus cereus; NA + G6P (50 μg/ml)) was 50 µg/mL and the MIC (Shigella sonnei; Anti-3A) was 100 µg/mL (≈ 476 µM). For the same compound, the MIC (Shigella sonnei; MHA) was 50 µg/mL (≈ 238 µM), the MIC (Shigella sonnei; NA + G6P (50 μg/ml)) was 100 µg/mL and the MIC (Shigella sonnei; NA) was 100 µg/mL (≈ 476 µM). It also gave an MIC ([9]; Anti-3A, 37° C., 24 hours) of 50 µg/mL (≈ 238 µM), an MIC [9, 14] of 100 µg/mL and an MIC ([9]; NA, 37° C., 24 hours) of 100 µg/mL (≈ 476 µM). The MIC [9] was 12.5 µg/mL (≈ 59.4 µM), the Minimum inhibitory concentration (Proteus mirabilis 1287; Anti-3A) was 50 µg/mL (≈ 238 µM) and the Minimum inhibitory concentration (Proteus mirabilis 1287; MHA) was 50 µg/mL (≈ 238 µM). The Minimum inhibitory concentration (Proteus mirabilis 1287; NA + G6P (50 μg/ml)) was 50 µg/mL, the MIC (Proteus mirabilis 1287; Proteus mirabilis, 1287, NA, read-out: Minimum inhibitory concentration) was 50 µg/mL (≈ 238 µM) and the Minimum inhibitory concentration ([10]; Anti-3A) was greater than 400 µg/mL. It also gave a Minimum inhibitory concentration ([10]; MHA) greater than 400 µg/mL, a Minimum inhibitory concentration ([10]; NA + G6P (50 μg/ml)) greater than 400 µg/mL and an MIC ([10]; Pseudomonas aeruginosa, J272, NA, read-out: Minimum inhibitory concentration) greater than 400 µg/mL. For the same compound, the MIC ([11]; Anti-3A) was greater than 400 µg/mL, the MIC ([11]; MHA) was 100 µg/mL (≈ 476 µM) and the MIC ([11]; NA + G6P (50 μg/ml)) was no less than 400 µg/mL. For the same compound, the MIC ([11]; NA) was greater than 400 µg/mL, the MIC ([12]; Anti-3A) was 100 µg/mL (≈ 476 µM) and the MIC ([12]; MHA) was 50 µg/mL (≈ 238 µM). The MIC ([12]; NA + G6P (50 μg/ml)) was 50 µg/mL, the MIC ([12]; NA) was 50 µg/mL (≈ 238 µM) and the MIC (Salmonella typhi TANAKA; [15]) was 12.5 µg/mL (≈ 59.4 µM). The MIC (Salmonella typhi TANAKA; [16]) was 3.12 µg/mL (≈ 14.8 µM), the MIC (Salmonella typhi TANAKA; [17]) was 12.5 µg/mL and the MIC (Salmonella typhi TANAKA; [18]) was 12.5 µg/mL (≈ 59.4 µM). The Minimum inhibitory concentration ([13]; Anti-3A) was 6.25 µg/mL (≈ 29.7 µM), the Minimum inhibitory concentration ([13]; MHA) was 6.25 µg/mL (≈ 29.7 µM) and the Minimum inhibitory concentration ([13]; NA + G6P (50 μg/ml)) was 6.25 µg/mL. The MIC ([13]; Pseudomonas aeruginosa, G75, NA, read-out: Minimum inhibitory concentration) was 6.25 µg/mL (≈ 29.7 µM), the solubility (Solubility in solvents; acetone) was “easily soluble” and the solubility (Solubility in solvents; alkaline water) was “easily soluble”. The solubility (Solubility in solvents; ethyl acetate) was “easily soluble”, the solubility (Solubility in solvents; methanol) was “easily soluble” and the solubility (Solubility in solvents; neutral to acidic water) was “slightly soluble”.
